Consider 13 compounds from patent US11753407B2, “Compounds for treating spinal muscular atrophy” (PTC Therapeutics, Inc., priority 2012, dated 2023).

Bounds are passed on as bounds.

Data set [1] relates to SMN2 minigene mRNA (SMN2-A minigene) in HEK293H cells. The experiment in a line: SMN2 minigene mRNA splicing RT-qPCR assay in cultured cells. The data set is classed as cell-based, human. Conditions: Homo sapiens, HEK293-H; concentration increasing full length SMN2 mRNA 1.5-fold relative to vehicle-treated cells; HEK293H cells with SMN2-A minigene, 24 hours, 7-point concentration data; read-out: EC1.5x for production of full length SMN2 mRNA. The method in brief:
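Potency reflects the concentration that lifts full-length SMN2 minigene mRNA 1.5-fold above vehicle in stably transfected HEK293H cells after 24 h of treatment. Transcript abundance came from RT-qPCR as (1+E)^−Ct, normalized to GAPDH; endogenous SMN1/SMN2 are not detected.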
Background: Quantitative PCR measures a nucleic acid by following its amplification.

Data set [2] has as its system Smn protein in SMA patient fibroblast cells (GM03813). Put plainly: Smn protein assay in cultured cells (SMN HTRF). The data set is classed as cell-based, human. Conditions: SMA patient fibroblast cells, 48 hours; for EC1.5x for Smn protein expression: 7-point concentration curve, SMN HTRF, concentration producing 1.5 times Smn protein vs DMSO vehicle control; for maximum fold (Fold) increase of Smn protein: 7-point concentration data, fold relative to vehicle control. The method, boiled down:
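Smn protein abundance in treated SMA fibroblasts was measured by HTRF after 48 h compound exposure. The reported EC1.5× is the concentration producing 1.5 times vehicle Smn levels.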
On the technique in general: TR-FRET usually uses a lanthanide donor and a delayed reading to cut background.

For orientation: melting point means the temperature of the solid-liquid transition. `Cc1nc2ccc(-c3cc(=O)n4cc(OC5CCNCC5)ccc4n3)cc2s1` [Compound 286, 2-(2-methyl-1,3-benzothiazol-6-yl)-7-(piperidin-4-yloxy)-4H-pyrido[1,2-a]pyrimidin-4-one] came in with a melting point of 218 to 220 °C. The EC (1.5-fold increase) in data set [1] was 0.3 to 1 µM. Besides, in data set [2], the “EC1.5x for Smn protein expression” value is “*** (an EC1.5× between >0.3 μM and ≤1 μM is indicated by three stars (***))”; the “maximum fold (Fold) increase of Smn protein” value (shortened to “maximum fold (Fold) increase”) was “**** (a fold increase between >1.5 and ≤1.65 is indicated by four stars (****))”.

As to `COc1ccc(-c2cc(=O)n3cc(N4CCC(N)CC4)ccc3n2)cc1OC` [Compound 127, 7-(4-aminopiperidin-1-yl)-2-(3,4-dimethoxyphenyl)-4H-pyrido[1,2-a]pyrimidin-4-one], the melting point lay within 182 to 185 °C. Besides, in data set [1], the EC (1.5-fold increase) lay within 0.3 to 1 µM. Further, in data set [2], the “EC1.5x for Smn protein expression” value was “* (An EC1.5× for Smn protein expression between >3 μM and ≤10 μM is indicated by one star (*))”; the “maximum fold (Fold) increase” value was “*** (a fold increase between >1.35 and ≤1.5 is indicated by three stars (***))”.

In the case of `Cc1cc(C2CCNCC2)cn2c(=O)cc(-c3ccc4nn(C)cc4c3)nc12` [Compound 721, 9-methyl-2-(2-methyl-2H-indazol-5-yl)-7-(piperidin-4-yl)-4H-pyrido[1,2-a]pyrimidin-4-one], the melting point was found to be 211 °C. Further, the EC (1.5-fold increase) in data set [1] is less than 0.1 µM. In addition, in data set [2], the “EC1.5x for Smn protein expression” value is given as “**** (an EC1.5x≤0.3 μM is indicated by four stars (****))” and the “maximum fold (Fold) increase” value is “***** (a fold increase >1.65 is indicated by five stars (*****))”.

Turning to `Cc1cc(-c2cc(=O)n3cc(C4CCNCC4)ccc3n2)cc2cn(C)nc12` [Compound 739, 2-(2,7-dimethyl-2H-indazol-5-yl)-7-(piperidin-4-yl)-4H-pyrido[1,2-a]pyrimidin-4-one], the melting point was 228 to 230 °C. The EC (1.5-fold increase) in data set [1] is less than 0.1 µM. In data set [2], the “EC1.5x for Smn protein expression” value is on record as “**** (an EC1.5x≤0.3 μM is indicated by four stars (****))” and the “maximum fold (Fold) increase” value was “***** (a fold increase >1.65 is indicated by five stars (*****))”.

Consider `CCN1CCC(c2ccc3nc(-c4ccc5nc(C)cn5c4)cc(=O)n3c2)CC1` [Compound 478, 7-(1-ethylpiperidin-4-yl)-2-(2-methylimidazo[1,2-a]pyridin-6-yl)-4H-pyrido[1,2-a]pyrimidin-4-one], for which the melting point was 190 to 192 °C. Also, the EC (1.5-fold increase) in data set [1] was less than 0.1 µM. Also, in data set [2], the “EC1.5x for Smn protein expression” value was “**** (an EC1.5x≤0.3 μM is indicated by four stars (****))” and the “maximum fold (Fold) increase” value is on record as “***** (a fold increase >1.65 is indicated by five stars (*****))”.

The compound `Cc1cn2cc(-c3cc(=O)n4cc(N5CCN[C@@H](C)C5)ccc4n3)cc(C3CC3)c2n1` [Compound 716, 2-(8-cyclopropyl-2-methylimidazo[1,2-a]pyridin-6-yl)-7-[(3S)-3-methylpiperazin-1-yl]-4H-pyrido[1,2-a]pyrimidin-4-one] showed a melting point of 246 to 250 °C. Besides, the EC (1.5-fold increase) in data set [1] was less than 0.1 µM. For the same compound, in data set [2], the “EC1.5x for Smn protein expression” value is “*** (an EC1.5× between >0.3 μM and ≤1 μM is indicated by three stars (***))”; the “maximum fold (Fold) increase” value is listed as “***** (a fold increase >1.65 is indicated by five stars (*****))”.

`COc1cccc(-c2cc(=O)n3cc(N4CCCN(C)CC4)ccc3n2)c1` [Compound 28, 2-(3-methoxyphenyl)-7-(4-methyl-1,4-diazepan-1-yl)-4H-pyrido[1,2-a]pyrimidin-4-one] registered a melting point of 130 to 132 °C. The EC (1.5-fold increase) in data set [1] was 3 to 30 µM. In data set [2], the “maximum fold (Fold) increase” value was “** (a fold increase between >1.2 and ≤1.35 is indicated by two stars (**))”.

As to `COc1ncc(-c2cc(=O)n3cc(N4CCN[C@@H](C)C4)ccc3n2)cc1F` [Compound 173, 2-(5-fluoro-6-methoxypyridin-3-yl)-7-[(3S)-3-methylpiperazin-1-yl]-4H-pyrido[1,2-a]pyrimidin-4-one], the melting point is 175 to 180 °C. Also, the EC (1.5-fold increase) in data set [1] fell in the range of 0.3 to 1 µM. The “maximum fold (Fold) increase” value in data set [2] was “** (a fold increase between >1.2 and ≤1.35 is indicated by two stars (**))”.

`CCc1nc(C)cn2nc(-c3cc(=O)n4cc(N5CCN(C6COC6)CC5)ccc4n3)cc12` [Compound 622, 2-(4-ethyl-6-methylpyrazolo[1,5-a]pyrazin-2-yl)-7-[4-(oxetan-3-yl)piperazin-1-yl]-4H-pyrido[1,2-a]pyrimidin-4-one] had a melting point of 205 to 208 °C. In addition, the EC (1.5-fold increase) in data set [1] lay within 1 to 3 µM. Moreover, in data set [2], the “EC1.5x for Smn protein expression” value was “** (an EC1.5× between >1 μM and ≤3 μM is indicated by two stars (**))”; the “maximum fold (Fold) increase” value was “**** (a fold increase between >1.5 and ≤1.65 is indicated by four stars (****))”.

In the case of `CCc1nc(C)cn2nc(-c3cc(=O)n4cc(N5CCN(C6CC6)[C@H](C)C5)ccc4n3)cc12` [Compound 644, 7-[(3R)-4-cyclopropyl-3-methylpiperazin-1-yl]-2-(4-ethyl-6-methylpyrazolo[1,5-a]pyrazin-2-yl)-4H-pyrido[1,2-a]pyrimidin-4-one], the melting point is 244 to 247 °C. Further, the EC (1.5-fold increase) in data set [1] lay in the range of 0.1 to 0.3 µM. In data set [2], the “EC1.5x for Smn protein expression” value was “*** (an EC1.5× between >0.3 μM and ≤1 μM is indicated by three stars (***))”; the “maximum fold (Fold) increase” value is recorded as “***** (a fold increase >1.65 is indicated by five stars (*****))”.

Take `Cc1cc(-c2cc(=O)n3cc(C4CCNCC4)ccc3n2)cc2cnn(C)c12` [Compound 775, 2-(1,7-dimethyl-1H-indazol-5-yl)-7-(piperidin-4-yl)-4H-pyrido[1,2-a]pyrimidin-4-one]: the melting point was 220 to 222 °C. Moreover, in data set [1], the EC (1.5-fold increase) fell in the range of 0.3 to 1 µM. Further, in data set [2], the “maximum fold (Fold) increase” value is “*** (a fold increase between >1.35 and ≤1.5 is indicated by three stars (***))”.

`Cc1cc(N2CCNCC2)cn2c(=O)cc(-c3ccc4nn(C)cc4c3)nc12` [Compound 754, 9-methyl-2-(2-methyl-2H-indazol-5-yl)-7-(piperazin-1-yl)-4H-pyrido[1,2-a]pyrimidin-4-one]: the melting point lay in the range of 233 to 243 °C. In addition, the EC (1.5-fold increase) in data set [1] is less than 0.1 µM. In addition, in data set [2], the “EC1.5x for Smn protein expression” value is “**** (an EC1.5x≤0.3 μM is indicated by four stars (****))” and the “maximum fold (Fold) increase” value was “***** (a fold increase >1.65 is indicated by five stars (*****))”.

As for `Cc1cn2cc(-c3cc(=O)n4cc(C5CCN(C)CC5)ccc4n3)ccc2n1` [Compound 448, 2-(2-methylimidazo[1,2-a]pyridin-6-yl)-7-(1-methylpiperidin-4-yl)-4H-pyrido[1,2-a]pyrimidin-4-one], the melting point lay within 218 to 220 °C. Besides, the EC (1.5-fold increase) in data set [1] is less than 0.1 µM. Besides, in data set [2], the “EC1.5x for Smn protein expression” value is given as “**** (an EC1.5x≤0.3 μM is indicated by four stars (****))” and the “maximum fold (Fold) increase” value is listed as “***** (a fold increase >1.65 is indicated by five stars (*****))”.
